Assay results taken from ChEMBL document CHEMBL1135855, “4-amidinobenzylamine-based inhibitors of urokinase” (Bioorg Med Chem Lett, 2002).

What was measured:
Prothrombin = Prothrombin (Homo sapiens, UniProt P00734); test: In vitro inhibition of thrombin.
Serine protease 1 = Serine protease 1 (Homo sapiens, UniProt P07477); test: In vitro inhibition of trypsin.
[1] = target: T1, Urokinase-type plasminogen activator (Homo sapiens, UniProt P00749); test: In vitro inhibition of plasminogen activator urokinase.
Coagulation factor X = Coagulation factor X (Homo sapiens, UniProt P00742); test: In vitro inhibition of Coagulation factor Xa.
Plasminogen = Plasminogen (Homo sapiens, UniProt P00747); test: In vitro inhibition of Plasmin.
[2] = target: T1, Urokinase-type plasminogen activator

Plasminogen, sequence (P00747 97-580 limits assumed): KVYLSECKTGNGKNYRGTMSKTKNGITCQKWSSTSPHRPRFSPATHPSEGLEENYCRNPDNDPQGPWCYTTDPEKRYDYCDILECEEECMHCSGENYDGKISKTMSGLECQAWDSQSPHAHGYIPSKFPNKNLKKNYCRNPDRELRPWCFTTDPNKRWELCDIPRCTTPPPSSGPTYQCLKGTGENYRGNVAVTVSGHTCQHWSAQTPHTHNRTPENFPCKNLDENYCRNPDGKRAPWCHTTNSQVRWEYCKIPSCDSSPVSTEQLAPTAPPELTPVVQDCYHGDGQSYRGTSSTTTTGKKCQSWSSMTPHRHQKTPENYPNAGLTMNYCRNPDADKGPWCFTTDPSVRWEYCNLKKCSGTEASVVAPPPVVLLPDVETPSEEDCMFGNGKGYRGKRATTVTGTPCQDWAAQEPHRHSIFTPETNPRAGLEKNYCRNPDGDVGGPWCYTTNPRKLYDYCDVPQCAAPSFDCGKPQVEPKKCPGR
Plasminogen, sequence (P00747 581-810 limits assumed): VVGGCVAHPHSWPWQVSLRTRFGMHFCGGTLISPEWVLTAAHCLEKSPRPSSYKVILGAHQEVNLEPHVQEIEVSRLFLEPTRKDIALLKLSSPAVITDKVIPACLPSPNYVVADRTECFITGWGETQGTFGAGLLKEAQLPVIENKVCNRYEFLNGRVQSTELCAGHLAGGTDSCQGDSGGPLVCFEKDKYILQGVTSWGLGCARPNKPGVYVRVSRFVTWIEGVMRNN
Coagulation factor X, sequence (P00742 41-179 limits assumed): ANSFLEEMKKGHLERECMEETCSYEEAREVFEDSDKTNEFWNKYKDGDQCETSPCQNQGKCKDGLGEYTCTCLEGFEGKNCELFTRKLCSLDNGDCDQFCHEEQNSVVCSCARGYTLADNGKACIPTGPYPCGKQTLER
Coagulation factor X, sequence (P00742 235-488 limits assumed): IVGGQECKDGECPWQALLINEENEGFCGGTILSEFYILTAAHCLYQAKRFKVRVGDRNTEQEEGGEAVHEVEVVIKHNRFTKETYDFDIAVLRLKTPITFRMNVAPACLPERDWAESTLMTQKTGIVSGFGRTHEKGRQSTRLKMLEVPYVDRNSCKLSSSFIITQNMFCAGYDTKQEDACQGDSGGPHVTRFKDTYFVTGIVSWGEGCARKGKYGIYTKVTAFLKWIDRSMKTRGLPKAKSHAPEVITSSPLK
Serine protease 1, sequence (P07477 whole entry): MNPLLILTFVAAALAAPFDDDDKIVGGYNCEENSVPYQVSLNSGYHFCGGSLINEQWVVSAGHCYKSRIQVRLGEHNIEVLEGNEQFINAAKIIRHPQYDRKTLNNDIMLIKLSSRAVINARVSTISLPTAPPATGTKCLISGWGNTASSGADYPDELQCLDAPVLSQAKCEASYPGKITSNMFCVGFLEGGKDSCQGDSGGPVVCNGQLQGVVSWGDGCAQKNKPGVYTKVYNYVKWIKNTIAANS

Row | Compound | Ki (Prothrombin) [µM] | Ki (Serine protease 1) [µM] | Ki [1] [µM] | Ki (Coagulation factor X) [µM] | Ki (Plasminogen) [µM] | Ki [2] [µM]
1 | CC(C)c1cc(S(=O)(=O)N[C@H](CO)C(=O)NCC(=O)NCc2ccc(C(=N)N)cc2)cc(C(C)C)c1C(C)C | 15 | 3.4 | 1.5 | 100 | 75 | 
2 | C[C@H](NC(=O)[C@@H](CO)NS(=O)(=O)CCc1ccccc1)C(=O)N[C@H]1CCCN(C(=N)N)C1O (stereo partly drawn) |  |  |  |  |  | 3.1
3 | N=C(N)c1ccc(CNC(=O)[C@H]2CCCN2C(=O)[C@@H](CO)NS(=O)(=O)Cc2ccccc2)cc1 | 0.012 | 0.0032 |  | 2 | 0.15 | 
4 | N=C(N)c1ccc(CNC(=O)CNC(=O)[C@H](N)CO)cc1 | 200 | 6.9 |  | > 1000 | > 1000 | 
5 | CC(C)(C)OC(=O)NC(CCC(=O)O)C(=O)NCC(=O)NCc1ccc(C(=N)N)cc1 (stereo not drawn) | > 1000 | 2.8 | 82 | > 1000 | > 1000 | 
6 | N=C(N)c1ccc(CNC(=O)CNC(=O)[C@@H](N)CO)cc1 | > 1000 | 7 |  | > 1000 | > 1000 | 
7 | CC(C)(C)OC(=O)N[C@@H](CO)C(=O)NCC(=O)NCc1ccc(C(=N)N)cc1 | 69 | 3.4 |  | 110 | 210 | 
8 | CC(NS(=O)(=O)c1ccc2ccccc2c1)C(=O)NCc1ccc(C(=N)N)cc1 (single isomer, unassigned; (-)) |  |  | 9.6 |  |  | 
9 | N=C(N)c1ccc(CNC(=O)CNC(=O)[C@@H](CO)NS(=O)(=O)CCc2ccccc2)cc1 | 33 | 0.9 | 0.49 | 28 | 59 | 
10 | N/C(=N\O)c1ccc(CNC(=O)CNC(=O)[C@@H](CO)NS(=O)(=O)Cc2ccccc2)cc1 | > 1000 | > 1000 |  | > 1000 | > 1000 | 
11 | N=C(N)c1ccc(CNC(=O)CNC(=O)[C@@H](CO)NC(=O)OCc2ccccc2)cc1 | 230 | 4.3 | 4 | 140 | 160 | 
12 | N=C(N)c1ccc(CNC(=O)CNC(=O)[C@@H](CO)NS(=O)(=O)Cc2ccccc2)cc1 | 13 | 0.15 |  | 3 |  | 

Now from value to compound, other results behind:

Row | Ki (Prothrombin) [µM] | Ki (Serine protease 1) [µM] | Ki [1] [µM] | Ki (Coagulation factor X) [µM] | Ki (Plasminogen) [µM] | Compound | Ki [2] [µM]
13 | 11 | 1.8 | 1.2 | 28 | 32 | N=C(N)c1ccc(CNC(=O)CNC(=O)[C@@H](CO)NS(=O)(=O)c2ccc3ccccc3c2)cc1 | 
14 | 15 | 1.7 | 2.2 | 15 | 140 | N=C(N)c1ccc(CNC(=O)CNC(=O)[C@@H](CO)NS(=O)(=O)/C=C/c2ccccc2)cc1 | 
15 | 0.05 | 0.0048 | 0.043 | 0.41 | 0.15 | CC(C)COC(=O)OC[C@@H](NS(=O)(=O)Cc1ccccc1)C(=O)N[C@@H](C)C(=O)NCc1ccc(C(=N)N)cc1 | 
16 | 16 | 0.65 |  | 10.6 | 43 | N=C(N)c1ccc(CNC(=O)CNS(=O)(=O)c2ccc3ccccc3c2)cc1 | 
17 | 170 | 4.5 | 9 | 140 | > 1000 | CC(C)(C)OC(=O)N[C@H](CO)C(=O)NCC(=O)NCc1ccc(C(=N)N)cc1 | 
18 | 3 | 0.064 |  | 0.34 | 10.9 | COC(=O)OC[C@@H](NS(=O)(=O)Cc1ccccc1)C(=O)NCC(=O)NCc1ccc(C(=N)N)cc1 | 
19 | 10 | 0.11 |  | 2 | 17 | N=C(N)c1ccc(CNC(=O)CNC(=O)[C@@H](CO)NS(=O)(=O)CC2CCCCC2)cc1 | 
20 | > 1000 | 5 | 22 | > 1000 | > 1000 | N=C(N)c1ccc(CNC(=O)CNC(=O)[C@@H](N)CCC(=O)O)cc1 | 
21 | 4 | 0.12 |  |  | 2.4 | CC(C)COC(=O)OC[C@@H](NS(=O)(=O)Cc1ccccc1)C(=O)NCC(=O)NCc1ccc(C(=N)N)cc1 | 
22 | > 1000 | 14 |  | > 1000 | > 1000 | CC(=O)N[C@H](CO)C(=O)NCC(=O)NCc1ccc(C(=N)N)cc1 | 
23 | 0.11 | 0.0033 |  | 2.1 | 0.54 | C[C@H](NC(=O)[C@@H](CO)NS(=O)(=O)Cc1ccccc1)C(=O)NCc1ccc(C(=N)N)cc1 | 
